How the values were obtained:
Assay in all cases: IA-DTB cysteine engagement
Type in all cases: binding
Conditions in all cases: 22Rv1 cells, 20 μM probe, 1 h, relative to DMSO
ABCA2_C2385 = molecular target: T1, ABCA2_C2385 (Homo sapiens, UniProt Q9BZC7)
T1 construct: endogenous in cells; host or cells: 22Rv1
In short: (§1)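 Cells were treated in situ with electrophilic probes, then lysed, and the lysates (2 mg/mL protein) were labeled with IA-DTB for 1 h at ambient temperature. After reduction, alkylation and trypsin digestion, labeled peptides were streptavidin-enriched, TMT-labeled and fractionated. Engagement ratios are probe vs DMSO reporter intensities, averaged across replicates.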

GPAT4_C325 = molecular target: T2, GPAT4_C325 (Homo sapiens, UniProt Q86UL3)
T2 construct: endogenous in cells; host or cells: 22Rv1
T2 sequence (Q86UL3 38-456): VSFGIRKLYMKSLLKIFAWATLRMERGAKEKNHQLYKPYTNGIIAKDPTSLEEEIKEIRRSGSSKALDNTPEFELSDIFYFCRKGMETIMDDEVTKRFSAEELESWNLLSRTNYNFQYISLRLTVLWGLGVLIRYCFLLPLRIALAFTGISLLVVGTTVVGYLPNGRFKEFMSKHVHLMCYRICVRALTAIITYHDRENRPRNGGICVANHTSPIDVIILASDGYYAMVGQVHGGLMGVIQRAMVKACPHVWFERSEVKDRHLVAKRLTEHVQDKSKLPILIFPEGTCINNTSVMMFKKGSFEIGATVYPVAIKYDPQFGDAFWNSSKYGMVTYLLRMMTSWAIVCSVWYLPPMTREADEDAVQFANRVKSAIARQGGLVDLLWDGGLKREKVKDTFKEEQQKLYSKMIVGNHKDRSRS
In short: as §1

UNC13A_C999 = molecular target: T3, UNC13A_C999 (Homo sapiens, UniProt Q9UPW8)
T3 construct: endogenous in cells; host or cells: 22Rv1
In short: as §1

NAPIL1_C132 = molecular target: T4, NAPIL1_C132 (Homo sapiens, UniProt P55209)
T4 construct: endogenous in cells; host or cells: 22Rv1
T4 sequence (P55209 1-391): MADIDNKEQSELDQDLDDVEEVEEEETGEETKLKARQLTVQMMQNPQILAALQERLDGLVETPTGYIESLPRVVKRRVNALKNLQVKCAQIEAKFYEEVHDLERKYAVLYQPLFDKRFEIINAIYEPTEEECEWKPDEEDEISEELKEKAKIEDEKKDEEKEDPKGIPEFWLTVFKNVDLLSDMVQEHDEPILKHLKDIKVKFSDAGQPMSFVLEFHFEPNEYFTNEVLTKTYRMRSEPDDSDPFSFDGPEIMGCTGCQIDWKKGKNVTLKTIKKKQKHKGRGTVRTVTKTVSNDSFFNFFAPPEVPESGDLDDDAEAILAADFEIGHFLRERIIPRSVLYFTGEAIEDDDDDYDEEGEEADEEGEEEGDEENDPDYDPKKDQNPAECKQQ
In short: as §1

T1 sequence (Q9BZC7 whole entry): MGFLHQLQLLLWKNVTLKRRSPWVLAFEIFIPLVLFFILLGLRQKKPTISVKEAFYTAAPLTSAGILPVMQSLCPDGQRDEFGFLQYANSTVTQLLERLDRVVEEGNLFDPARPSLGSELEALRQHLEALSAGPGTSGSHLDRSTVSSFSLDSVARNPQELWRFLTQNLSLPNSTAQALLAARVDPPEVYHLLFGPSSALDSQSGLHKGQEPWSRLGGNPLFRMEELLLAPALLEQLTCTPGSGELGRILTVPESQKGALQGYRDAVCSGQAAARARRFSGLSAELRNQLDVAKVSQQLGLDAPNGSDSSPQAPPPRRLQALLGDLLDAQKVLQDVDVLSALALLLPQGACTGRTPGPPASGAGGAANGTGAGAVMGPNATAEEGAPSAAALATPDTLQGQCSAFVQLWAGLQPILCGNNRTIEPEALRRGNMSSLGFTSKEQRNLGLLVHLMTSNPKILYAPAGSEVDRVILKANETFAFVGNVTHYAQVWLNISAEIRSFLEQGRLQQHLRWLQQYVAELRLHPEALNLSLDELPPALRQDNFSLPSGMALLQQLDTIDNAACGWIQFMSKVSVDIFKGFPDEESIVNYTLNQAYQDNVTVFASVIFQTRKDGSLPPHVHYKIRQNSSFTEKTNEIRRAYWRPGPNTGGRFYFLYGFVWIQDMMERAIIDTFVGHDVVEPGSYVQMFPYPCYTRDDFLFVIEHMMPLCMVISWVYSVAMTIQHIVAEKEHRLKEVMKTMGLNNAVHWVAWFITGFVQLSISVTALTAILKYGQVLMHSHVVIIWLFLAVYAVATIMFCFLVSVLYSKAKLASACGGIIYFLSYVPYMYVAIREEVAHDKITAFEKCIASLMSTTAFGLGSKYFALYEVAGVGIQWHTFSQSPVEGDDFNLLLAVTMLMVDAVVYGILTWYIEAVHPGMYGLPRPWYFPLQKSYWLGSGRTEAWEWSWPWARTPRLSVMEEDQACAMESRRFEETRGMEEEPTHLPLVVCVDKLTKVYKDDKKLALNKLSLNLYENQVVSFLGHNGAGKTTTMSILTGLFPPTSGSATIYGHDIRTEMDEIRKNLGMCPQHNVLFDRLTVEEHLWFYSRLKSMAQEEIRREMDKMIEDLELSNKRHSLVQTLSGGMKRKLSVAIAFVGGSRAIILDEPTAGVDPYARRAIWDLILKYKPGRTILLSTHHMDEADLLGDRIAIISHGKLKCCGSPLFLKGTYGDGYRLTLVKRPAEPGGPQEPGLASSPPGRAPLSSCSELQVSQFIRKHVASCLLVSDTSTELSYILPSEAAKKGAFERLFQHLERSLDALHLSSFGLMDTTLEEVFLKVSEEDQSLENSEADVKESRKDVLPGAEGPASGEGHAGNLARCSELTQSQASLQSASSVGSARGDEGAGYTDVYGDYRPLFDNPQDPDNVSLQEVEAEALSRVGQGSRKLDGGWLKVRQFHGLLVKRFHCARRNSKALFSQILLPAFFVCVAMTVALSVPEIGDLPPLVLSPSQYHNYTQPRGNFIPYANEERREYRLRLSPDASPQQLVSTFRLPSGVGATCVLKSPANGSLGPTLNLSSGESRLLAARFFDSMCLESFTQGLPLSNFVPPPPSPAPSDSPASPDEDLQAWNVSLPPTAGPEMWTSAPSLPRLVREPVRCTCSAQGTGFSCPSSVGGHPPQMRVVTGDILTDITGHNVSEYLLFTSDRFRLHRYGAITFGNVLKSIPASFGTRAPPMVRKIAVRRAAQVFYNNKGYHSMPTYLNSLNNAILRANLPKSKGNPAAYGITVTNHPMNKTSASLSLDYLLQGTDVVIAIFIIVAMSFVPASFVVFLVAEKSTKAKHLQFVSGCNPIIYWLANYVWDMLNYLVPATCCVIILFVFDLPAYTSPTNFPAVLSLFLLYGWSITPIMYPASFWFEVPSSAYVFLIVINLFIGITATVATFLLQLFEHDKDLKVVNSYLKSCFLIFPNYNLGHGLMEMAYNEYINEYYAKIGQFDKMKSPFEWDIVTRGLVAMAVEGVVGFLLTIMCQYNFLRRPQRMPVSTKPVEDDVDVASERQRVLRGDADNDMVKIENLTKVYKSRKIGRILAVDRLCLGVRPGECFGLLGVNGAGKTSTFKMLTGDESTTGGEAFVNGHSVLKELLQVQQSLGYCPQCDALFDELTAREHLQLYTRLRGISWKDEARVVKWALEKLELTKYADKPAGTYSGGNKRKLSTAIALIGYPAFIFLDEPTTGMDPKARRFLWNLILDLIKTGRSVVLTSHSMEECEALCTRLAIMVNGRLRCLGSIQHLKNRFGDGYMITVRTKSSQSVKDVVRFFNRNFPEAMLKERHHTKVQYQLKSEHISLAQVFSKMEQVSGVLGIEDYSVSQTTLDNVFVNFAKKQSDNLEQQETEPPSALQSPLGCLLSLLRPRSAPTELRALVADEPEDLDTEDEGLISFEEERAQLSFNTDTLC

SMILES	% engagement ABCA2_C2385 (ABCA2_C2385) [%]	% engagement GPAT4_C325 (GPAT4_C325) [%]	% engagement UNC13A_C999 (UNC13A_C999) [%]	% engagement NAPIL1_C132 (NAPIL1_C132) [%]
C=CC(=O)N1C[C@@H](c2ccc(Br)cc2)[C@H]1C(=O)Nc1cccc2cccnc12 [MY-1A, (2S,3R)-1-acryloyl-3-(4-bromophenyl)-N-(quinolin-8-yl)azetidine-2-carboxamide]	33	83.25	54.5	−21.5
C=CC(=O)N1C[C@H](c2ccc(Br)cc2)[C@@H]1C(=O)Nc1cccc2cccnc12 [MY-1B, (2R,3S)-1-acryloyl-3-(4-bromophenyl)-N-(quinolin-8-yl)azetidine-2-carboxamide]	78	80	100	6
C=CC(=O)N1C[C@H](c2ccc(Br)cc2)[C@H]1C(=O)Nc1cccc2cccnc12 [MY-3A, (2S,3S)-1-acryloyl-3-(4-bromophenyl)-N-(quinolin-8-yl)azetidine-2-carboxamide]	42.5	67.25	100	25
C=CC(=O)N1C[C@H](c2ccc(Br)cc2)[C@H]1C(=O)Nc1cccc2cccnc12 [MY-3B, (2S,3S)-1-acryloyl-3-(4-bromophenyl)-N-(quinolin-8-yl)azetidine-2-carboxamide]	72.5	93.75	23.5	80

Source: patent publication US20250034216A1, “STEREOSELECTIVE COVALENT LIGANDS FOR ONCOGENIC AND IMMUNOLOGICAL PROTEINS” (The Scripps Research Institute, priority 2021, published 2025)
